Laboratory results from publication PMC12320299 (Chemical Science, 2025).

Columns and labels:
[1] = Solubility in phosphate buffered saline; assay type: physicochemical; settings: PBS with 1% DMSO
Description: Fig. 2 (A) Chemical structures of the investigated naphthoquinone-based metal(arenes) in this study.

[2] = Stability in aqueous solution by ESI-MS; assay type: physicochemical; settings: 50 μM, share of total intensity
Protocol: In order to elucidate the transformation products of hydrolysis at micromolar concentrations, the four compounds were analogously incubated at 50 μM and analysed by ESI-MS[34] in a time-dependent manner after 1.5 h, 24 h and 72 h. The four complexes of this series were quite stable over 24 h (ESI, Fig. S12 ^†), but gradually released the NQ-ligands over the course of 72 h, which was observed by the formation of characteristic metal(cymene)-dimers containing pyrazole as bridging ligands. In addition, the observation of the free 3-Morph-NQ ligand after 24 h further supported the previously established activation mechanism (ESI, Fig. S12 ^†). A mass signal, which was probably generated by in-source fragmentation corresponded to pyrazole-release. […] In general, the intensity of the intact compounds after 24 h at 50 μM corresponded to approximately 40% of the total intensity of the mass spectrum in all four cases, not accounting for ionization efficiency (Fig. 2B).
Stability Study by UV-Vis Spectroscopy […]
80 µM. The stability of the compounds was monitored in a UV-Vis spectrophotometer (Perkin Elmer lambda 35 photometer) over 96 h by acquiring an UV-Vis spectrum every 30 mins. The percentage of the remaining intact compound was calculated by the ratio of the maximum absorbance of the tridentate complexes’ characteristic absorption band around 350– 370 nm after a given timepoint (A) compared to the one directly after dilution (A0). […]
Samples were diluted to a concentration of 2.5 µM with an organic eluent (49.5% v/v acetonitrile, 49.5% v/v methanol,1% v/v H2O), except ubiquitin containing samples which were diluted to the same concentration with acidified H2O (0.1% v/v formic acid). The samples were then analysed by flow-injection using an amazon speed ETD ion trap (Bruker Daltonics) in the positive ion mode over 0.4 min using the following experimental parameters: HV capillary ±4.5 kV, end plate offset –500 V, dry temp 180 °C, nebulizer 3 bar, dry gas 5 L min-1, scan range m/z 200–1400, target mass m/z 900, flow rate 5 µL min-1. […]

[3] = system: SW480 colon carcinoma cell line; assay: MTT viability assay, SW480, 24 h; assay type: cell-based, human; settings: for IC50: 24 h incubation; for potency compared to morpholine-analogues 1b and 2b: SW480, 24 h
Protocol: cultured in adherent T75 flasks (Sarstedt) in a humidified incubator at 37 °C and 5% CO2 (HeraCell150i, Thermo Fisher Scientific) and subcultured three times a week as the cells reached 75–80% growth area occupied. […]
Trypsin/EDTA solution (0.25%, Sigma-Aldrich) was used for detachment of all […]
SW480 human colon carcinoma cells (4.000 cells/well for the ethyl complexes; 4.000 and 10.000 cells/well for the morpholino complexes) were seeded in flat-bottom 96-well plates (Corning) and incubated at 37 °C for 24 h in a humidified incubator at 5% CO2 (HeraCell150i, Thermo Fisher Scientific). Stock solutions of the compounds were freshly prepared in DMSO […]
10 µM in complete cell culture medium for the ethyl compounds and 5, 10, 20, 40, 60, 80, 120, 160 µM for the morpholino compounds (final concentration of DMSO ≤0.4% v/v). The cells were incubated with the compounds for 24 h and 72 h. Then, the cell metabolism was colorimetrically determined using 3-(4,5-dimethylthiazol-2-yl)-2,5-diphenyl tetrazolium bromide (MTT). For this purpose, MTT reagent (20 µL, 5 mg mL-1 in phosphate-buffered saline, PBS) was added to each well and further incubated for 4 h. The medium was gently […]
removed and 100 µL DMSO was added to dissolve the formazan crystals. Photometric quantification was performed at 570 nm with a Multiskan Go 1510 photometer (Thermo Fisher […]
The absorbances were blank corrected and converted to relative proliferation. The IC50 values (concentration of 50% growth inhibition) were obtained using a sigmoidal fit of the experimental data and calculated as the mean ± standard deviation of at least three independent experiments, each in at least triplicates. […]
(each 3.000 cells/well) were seeded in 100 µL/well into flat-bottom 96-well plates (Starlab) and incubated at 37 °C for 24 h in a humidified incubator (Binder CB210) at 5% CO2. Complex 1a, bafilomycin or bortezomib were dissolved in DMSO and diluted in appropriate cell culture medium to respective concentrations. After 24 h of treatment, plates were measured by MTT assay as described above.
Colon carcinoma cells (SW480) were seeded into 12-well plates (CytoOne, Starlab) in densities of 1×10^5 cells per well (in 1 mL complete medium). After 24 h, cells were treated with […]

[4] = system: SW480; design: method as in earlier work; settings: 96 h incubation; ref 48 (ESI Ref. 1); cited from earlier work
[5] = system: CH1/PA-1; design: method as in Ref. 1 (ESI); settings: 96 h incubation; ref Ref. 1 (ESI); cited from earlier work

Row | SMILES | Solubility in PBS [1] [µM] | Intact compound after 24 h, aqueous medium [2] [%] | IC50 [3] [µM] | potency compared to morpholine-analogues 1b and 2b [3] [times] | IC50 [4] [µM] | IC50 [5] [µM]
1 | CCC1=C2[O][Ru][O]C2(n2cccn2)c2ccccc2C1=O.Cc1ccc(C(C)C)cc1 (stereo not drawn) [Compound 1a, [(3-ethyl-4-oxo-(pyrazolyl)-dihydronaphthalene)(cymene)ruthenium(II)]] | 170 | 42 | 0.62 ± 0.04 | > 30 | 0.046 ± 0.007 | 62 ± 5
2 | Cc1ccc(C(C)C)cc1.O=C1C(CN2CCOCC2)=C2[O][Ru][O]C2(n2cccn2)c2ccccc21 (stereo not drawn) [Compound 1b] | 1220 | 47 | 38 ± 5 | – | 33 ± 2 | 150 ± 20
3 | CCC1=C2[O][Os][O]C2(n2cccn2)c2ccccc2C1=O.Cc1ccc(C(C)C)cc1 (stereo not drawn) [Compound 2a] | 210 | 45 | 1.2 ± 0.1 | > 30 | – | –
